Experimental data as given in a melting point compilation (Tetko et al.; mined from patent text by program, amines drawn as free bases though some values may be those of a salt).

Structure (SMILES)	melting point [°C]
CCOC(=O)CCn1c(-c2ccccc2)c(-c2ccccc2)n(-c2ccccc2)c1=O	111 to 112
CCCC(=O)c1ccc(=O)[nH]c1CCC	86 to 88
CC(=O)Nc1ccc(-c2cc(C(=O)c3ccc(Cl)cc3)sc2N2CCOCC2)cc1	120
CCN1CCN(CCc2ccc(-c3ccc4c(Nc5cc(OC)c(Cl)cc5Cl)c(C#N)cnc4c3)cc2)CC1	75 to 78
CS(=O)(=O)Nc1cccc(Nc2nc(NCc3ccccc3O)c3nc[nH]c3n2)c1	168 to 171
O=C1CSC=C(c2ccccc2)N1	150 to 155
COc1ccc(S(=O)(=O)N(CCCO)c2ccccc2/C=C/c2ccncc2)cc1	164 to 167
CC(NC(=O)c1c(Cl)ccnc1Cl)c1ncc(C(F)(F)F)cc1Cl (single isomer, unassigned; (+))	110 to 111
COc1cc(C(=O)c2ncc3ccc(NC(=O)OC(C)(C)C)cn23)ccc1[N+](=O)[O-]	200
O=C(O)C=Cc1ccc2ccccc2c1	207 to 208
CC#CCOc1cc(Oc2c(F)cccc2F)ncn1	79.8
CC(C)NC(=O)CCC(O)c1ccccc1 (centres undefined)	131 to 135
CCOc1ccc(-c2nn(C(C)c3oc4ccccc4c(=O)c3-c3cccc(F)c3)c3ncnc(N)c23)cc1 (centres undefined)	229 to 232
CCCNC(=S)NCCCn1c(CCOC)nc2c(N)nc3ccccc3c21	172 to 173
COc1ccc2c(c1)c(C1CCN(Cc3ccc(OC)c(C(=O)O)c3)CC1)cn2CCc1ccsc1	229 to 230
CNC(=O)C(NC(=O)Nc1n[nH]c(=S)s1)c1ccccc1 (centres undefined)	240 to 241
CC(=O)OCC(C(=O)OC(C)(C)C)C(=O)c1ccccc1 (centres undefined)	72 to 74
CN(Cc1cccc(Cl)c1)c1ccc(C(N)=O)nc1	178 to 183
O=S(=O)(O)c1cc(NCc2c(F)c(F)c(C(F)(F)F)c(F)c2F)ccc1O	> 300
O=C(CCCOc1ccc2nc3[nH]c(=O)[nH]c3cc2c1)N1CCN(c2ccccc2)CC1	277 to 279
Nc1nc(O)cc(NC2CC2)n1	229
COc1ccc(S(=O)(=O)C(CCCc2ccccc2)(CCCc2ccccc2)C(=O)NO)cc1	118 to 120
O=C(O)c1cn(C2CC2)c2nc(N3Cc4ccc(CO)cc4C3)c(F)cc2c1=O	> 300
CS(=O)(=O)Nn1c(=O)[nH]c2cc(C(F)(F)F)c(CCCO)cc2c1=O	243 to 247
COc1ccc(COC(=O)c2ccc3ccccc3c2O)cc1	92 to 93

Structure (SMILES)	melting point [°C]
CCO[PH](=O)C#Cc1c(C(C)C)c2ccccc2n1-c1ccc(F)cc1 (centres undefined)	80 to 82.5
CC1CNCc2c1[nH]c1cnc3cc(Cl)ccc3c21 (centres undefined)	286 to 287
COc1ccc(Br)cc1-c1nc(N)nc(N)n1	294 to 297
COC(=O)CCc1ccc(N2C(=O)CN(c3ccc(C#N)cc3)C2=O)cc1	188 to 190
COc1ccc(-c2cc(CN3CCNCC3)c(=O)n(CC3CC3)n2)cc1F	112 to 118
CCc1nc2c(o1)C(=O)C(Cl)=C(Nc1ccccc1)C2=O	159
CC(C)c1ccc(NC(=O)C2CCCc3c(OCc4ccccc4)ccc(F)c32)cn1 (centres undefined)	184
CCOC(=O)c1cn(C2CC2)c2c(F)c(F)c(F)cc2c1=O	167 to 168
CCCCC(CC)COc1cc(CO)c(-n2c3ccccc3c3ccccc32)cc1CO (centres undefined)	128
CCOC(=O)C(C)(C)c1nsc2ccc([N+](=O)[O-])cc12	75 to 77
CCC(=O)Oc1cc(OC)cc(OC)c1C(=O)C=Cc1ccc(Cl)cc1	136
C[C@H](C/C=C/C=C/C(C)(C)O)[C@H]1CC[C@H]2[C@@H](O)CCC[C@]12C	110 to 112
O=C(NCc1ccccc1F)c1ccc2cnccc2n1	110 to 111
CC(C)(C)OC(=O)N1CCc2ccc(NS(C)(=O)=O)cc2CC1	153 to 154
c1ccc(-c2ccc(CCCN3CCN(c4ccccc4)CC3)o2)cc1	95
COc1cccc(C2(c3cccc(OC)c3)CC2(C)C=O)c1 (centres undefined)	122 to 123
c1cncc(-c2cnc3ccccc3c2)c1	117 to 119
O=S1(=O)c2cccc3cccc(c23)N1CCCCN1CCN(c2ccc(O)cc2)CC1	195
CCOc1cc(-c2nnc3c4ccccc4c(OCc4nc[nH]n4)nn23)no1	240 to 243
CC(C)N1CC2(COc3ccc(N)cc3OC2)OC1=O (centres undefined)	157 to 159
CCOC(=O)COC(=O)Cc1ccc2cc(OC)ccc2c1	38 to 40
C=CCn1c(=O)n(-c2ccc3c(c2)OCO3)c2ncccc21	100
CN1CCCC1CCNc1ncc2c(c1C#N)-c1ccccc1C(c1ccc(Cl)c(Cl)c1)C2 (centres undefined)	131 to 134
CCCCn1c(=O)n(CCC)c(=O)c2c(NC(C)=O)n[nH]c21	156 to 158
CCCC(=O)NN(C(=O)C(=O)NN)C(=O)c1ccccc1	254

Structure (SMILES)	melting point [°C]
COC(=O)c1cc(-c2ccccc2)cc2c1C(C)(C)CCC2(C)C	118
Cc1nn(-c2ccc(Cl)cc2F)c(=O)[nH]1	115
C=C1N(Cc2ccccc2)C(=O)OC12CCN(Cc1ccccc1)CC2	113 to 114
Oc1ccc2c(c1)COc1c-2cc2ccc(O)cc2c1-c1ccoc1	216 to 218
CN(C1=NCCO1)c1ccc(C(O)(C(F)(F)F)C(F)(F)F)cc1	188 to 190
COc1ccc(N2CCN(c3ccc(OC)nc3-c3ccc(OCC(F)(F)F)cc3)CC2)cc1	104 to 107
O=C(N[C@H]1CC[C@H](CCN2CCN(c3nccc4c3CCO4)CC2)CC1)c1ccnc2ccccc12	210
Cn1c(=O)[nH]c2c(C(N)=O)nc(-c3cccnc3)nc21	> 350
CC1(C)CN2C(=O)c3ccccc3C(O)(c3ccccc3)C2=N1 (centres undefined)	186 to 188
Cc1ccccc1C1CN(C(=O)OC(C)(C)C)CCC1=O (centres undefined)	97 to 99
CC(C(=O)O)c1ccc2c(c1)C(=O)Cc1cc(Cl)ccc1S2 (centres undefined)	195 to 196
CC(=O)NCC(=O)NCC1(S)C2CC3CC(C2)CC1C3 (centres undefined)	154 to 157
CCCS(=O)c1cccc(-c2nc(=O)c3ccccc3s2)n1 (centres undefined)	175
O=C(NCCN1CCCC1)c1ccc(=O)n(Cc2ccc(-c3ccccc3)cc2)c1	142 to 152
CC(=O)OCC1OC(n2cc(C3=C(c4cn(C(=O)OC(C)(C)C)c5ccccc45)C(=O)N(C)C3=O)c3cccnc32)C(OC(C)=O)C(OC(C)=O)C1OC(C)=O (centres undefined)	89 to 91
C=C[C@H]1OC(C)(C)O[C@@H](CC(=O)OCc2ccccc2)[C@H]1NC(=O)OCc1ccccc1 (relative stereo)	39 to 40.8
O=C(C=Cc1ccc(O)c([N+](=O)[O-])c1)NC1CCc2ccccc21 (centres undefined)	203 to 205
C[C@@H](CCOC(N)=O)CN1CCC(c2noc3cc(F)ccc23)CC1	72 to 74
O=c1nc(NCCCn2ccnc2)n2c3c1cnn3C(c1cccc(F)c1)=CC2	256 to 258
O=C(O)CSCc1cccc(NC(=O)c2cc(-c3ccccc3)oc2C(F)(F)F)c1	178 to 182
Cn1ncc(C(=O)O)c1OCc1ccccc1	117 to 122
COCC(C)Oc1cc(Oc2ccc(S(C)(=O)=O)cc2)cc2cc(C3=NCC(C(OC)OC)S3)[nH]c12 (centres undefined)	109 to 112
O=Cc1cc(C(=O)CCl)c[nH]1	178 to 179
CCOC(=O)c1cc(N2C(=O)C3=C(CCCC3)C2=O)ccc1O	90
COc1cc(C2c3cc4c(cc3C(NC3=CC(=O)N(Cc5ccc(C(F)(F)F)cc5)C3=O)C3COC(=O)C23)OCO4)cc(OC)c1O (centres undefined)	184 to 186

Structure (SMILES)	melting point [°C]
CS(=O)(=O)Nc1ccc(N)cc1CC1CCCCC1	160 to 162
COc1ccc(S(=O)(=O)O)cc1OC(=O)c1ccccc1	139 to 140
O=C1c2ccccc2C(=O)N1OCC=Cc1ccc(Br)cc1	161 to 162
C[C@H]1C=CC2=C[C@@H](O)C[C@H](OC(=O)C(C)(C)Oc3ccc(F)cc3)[C@@H]2[C@H]1CC[C@@H]1C[C@@H](O)CC(=O)O1	142 to 145
COc1ccc(C(=O)Nc2ccccc2C(C)c2ccccn2)cc1 (centres undefined)	125 to 126
NC(=O)N(O)Cc1cscc1Br	134 to 136
CN(C)CCNc1c(-c2ccccc2)c(=O)[nH]c2cc(Cl)ccc12	230
O=C(NCCO)c1ccc(NS(=O)(=O)c2ccc(F)cc2)cn1	144 to 146
O=C1NC(=O)C(=Cc2ccc(OCCN3C(=O)SC(Cc4ccccc4)C3=O)cc2)S1 (centres undefined)	145 to 147
CCOC(=O)c1cnc2ccccc2c1O	266
CCCCCCCCOc1ccc(C(=O)Nc2cccc(Cl)c2Cl)cc1	104 to 106
CCCCCCCCCCCCc1cc2c(s1)NC(=O)CN=C2c1ccccc1Cl	119 to 121
COC(=O)N1CCC(=NO)c2cc(Cl)ccc21	162 to 163
O=C(O)C1CCc2c(c3cc(O)ccc3n2C(=O)c2ccccc2)C1 (centres undefined)	224 to 227
CN(C)Cc1ccc(-c2cc3c(Nc4ccc(OCc5ccccc5)cc4)ncnc3[nH]2)cc1	272 to 274
CC(=O)C1(Nc2ccc(C)cc2)CCN(CCc2ccccc2)CC1	134
COC(=O)c1ccc(Cn2c(=O)c(C)c3sc(C(=O)NCc4ccc(OC)cc4)cn3c2=O)cc1	163 to 165
CCCCNS(=O)(=O)c1ccc(OC)c(NC(C)=O)c1	115 to 117
Cn1ncc(C=O)c1-c1ccc([N+](=O)[O-])o1	130
Nc1nc(-c2ccc(CCN3CCN(c4cccc(C(F)(F)F)c4)CC3)cc2)cs1	274 to 277
N=C(N)c1ccc2c(c1)C(CCNC(=O)c1ccc(-c3ccccn3)s1)CO2 (centres undefined)	54 to 56
CS(=O)(=O)O[C@@H]1CCc2c(F)cc(F)cc2C1	79 to 80
COP(=O)(Cc1cc(C(C)(C)C)c(O)c(C(C)(C)C)c1)OC	155
Cc1cc(C)c(NCCC(N)=S)cc1C	110 to 111
